“Also recorded” adds a separate entry of the source.
Tested on: ASK1 (ser 967, ser 83, thr 845)
Assay: Phosphorylation of ASK1 sites in ASK1-transfected 293T cells (immunoblotting)
Assay type: cell-based
Conditions: for Phosphorylation of ASK1 at ser 83 and thr 845 / Phosphorylation of ASK1 at ser 967: ASK1-transfected 293T; for Phosphorylation of ASK1 at ser 83 and thr 845: up to 100 μM; for Phosphorylation of ASK1 at ser 967: 100 μM compound, two hours
Method: Phosphorylation of ASK1 at various sites was inspected. 293T cells were transfected with pcDNA-ASK1-HA. One day later, cells were incubated with DMSO (0.4%) or 100 μM compound 6239507 (#1) for two hours. Cell extracts were prepared using lysis buffer and were subjected to immunoblotting using anti-phospho ASK1 antibodies or anti HA antibody as indicated (A). The relative density of each phosphorylated ASK band was calculated by imageJ software (B). In (C), compounds from (A) were compared in activity against thapsigargin-induced cell death. […] (D) 293T cells were transfected with pcDNA-ASK1-HA and pEBG-GST-14-3-3. One day later cells were incubated with DMSO (0.4%) or 100 μM of the indicated compound for two hours. Then cells were treated with thapsigargin (20 μM) for the indicated time. Cell extracts were prepared using lysis buffer, and 14-3-3 proteins were immunoprecipitated with […] sepharose beads. ASK1 protein binding with 14-3-3 was visualized by immunoblotting using anti-HA antibody. Anti-phospho ASK1 (ser967) antibody was used to detect phosphorylation of ASK1 at each time point.
Thus, while not directly inhibiting ASK1 kinase activity, these events are predicted to reduce ASK1 in vivo kinase activity. It is possible that compound 5962123 inhibits a protein phosphatase that regulates phosphorylation of Ser967.
Suppression of thapsigargin-induced phosphorylation of p38MAPK was also measured by a quantitative ELISA-methods, with IC50 for p38MAPK phosphorylation estimated at <5 μM. In contrast, thapsigargin-induced expression of CHOP, expression of ATF4, proteolytic processing of ATF6, phosphorylation of eIF2a (Ser 51), auto-phosphorylation of Ire1a or auto-phosphorylation of ASK1 were not inhibited directly by CID-2878746 at concentrations up to 50 μM tested by in vitro kinase assay using p32-γ-ATP substrate. […] Thapsigargin-induced reductions in phosphorylation of ASK1 at the serine 967 site in ASK1 transfected 293T cells are inhibited by compound 5962123 at concentrations of 50-100 μM, as determined by immunoblotting using anti-phospho-specific (ser 967) antibody, but thapsigargin-induced changes in phosphorylation of ASK1 at ser 83 and thr 845 are not modulated by compound 5962123 at concentrations as high as 100 μM in ASK1-transfected HEK293T cells.
Experiments were also performed to determine whether compound 6239507 enhances phosphorylation of ASK1 at Ser 967 before and after ER stress induction (i.e., thapsigargin treatment). 293T cells were transfected with pcDNA-ASK1-HA. One day later, cells were incubated with DMSO (0.4%) or 100 μM compound 6239507 (#1) for two hours. Then cells were treated with thapsigargin (20 μM) for the indicated times. Cell extracts were prepared by lysis buffer and were subjected to immunoblotting with anti-phospho ASK1 Ser967 antibody or anti HA antibody. The relative density of phosphor ser967 bands were calculated by imageJ software (mean ±SD).
The ser 967 site of ASK1 is known to down-regulate ASK1 activity by phosphorylation (Goldman et al., J. Biol. Chem. 279:10442-10449, 2004) via 14-3-3 binding. […] 293T cells were transfected with pcDNA-ASK1-HA. One day later, cells were incubated with DMSO (0.4%) or 100 μM compound 6239507 (#1) for two hours. Cell extracts were prepared using lysis buffer and were subjected to immunoblotting using anti-phospho ASK1 antibodies or anti HA antibody as indicated. The relative density of each phosphorylated ASK band was calculated by imageJ software. The compounds were compared in activity against thapsigargin-induced cell death. 293T cells were transfected with pcDNA-ASK1-HA and pEBG-GST-14-3-3. One day later cells were incubated with DMSO (0.4%) or 100 μM of the indicated compound for two hours. Then cells were treated with thapsigargin (20 μM) for the indicated time. Cell extracts were prepared using lysis buffer, and 14-3-3 proteins were immunoprecipitated with […] sepharose beads. […]

| SMILES | Phosphorylation of ASK1 at ser 83 and thr 845 | Thapsigargin-stimulated dephosphorylation of ASK1 at serine 967 (ASK1-transfected HEK293T, 50 μM, 50-100 μM) | Phosphorylation of ASK1 at ser 967 | Phosphorylation of ASK1 at ser 967 (listed as 1) |
| --- | --- | --- | --- | --- |
| CCN(CC)c1ccc(C2Nc3ccccc3NC3=C2C(=O)CC(c2ccccc2)C3)cc1 (stereo not shown) [Compound 5962123, 6-(4-diethylaminophenyl)-9-phenyl-5,6,8,9,10,11-hexahydrobenzo[c][1,5]benzodiazepin-7-one] | not modulated | inhibited | – | – |
| COc1ccc(C2CC(=O)C3=C(C2)Nc2ccccc2NC3c2ccccc2C(F)(F)F)cc1OC (stereo not shown) [Compound 6237735] | not ser 83 or thr 845 | – | enhanced phosphorylation of ser 967 only | – |
| COc1ccc(C2CC(=O)C3=C(C2)Nc2ccccc2NC3c2cccc(Oc3ccccc3)c2)cc1OC (stereo not shown) [Compound 6239507] | not ser 83 or thr 845 | – | enhance phosphorylation; also recorded: intensified | enhanced phosphorylation of ser 967 only |

From patent publication US20080293699A1, “Inhibitors of thapsigargin-induced cell death” (priority 2007, published 2008)
